Data: patent US10472677B2, “Translational dysfunction based therapeutics” (Translational Therapeutics, Inc., priority 2005, dated 2019)
Where “and” joins values, the source holds several entries; their conditions need not be identical. Equal values may be shown once. Entries after “also recorded” stand apart in the source; their conditions may differ. Values belong to the molecule of their own block, whether it stands above or below them. Starred links: 1 amine or outer side, 2 acyl side, 3 side chain; linkers in the order of their positions; H or OH if unused. Positions of bridges follow the written chain, without caps; N, C: chain ends. Non-standard residues stand in square brackets, D forms with d. Residues, ends and D or L forms follow the SMILES beside them. Chains are numbered I, II in the order given. Actinocin(9to1) = Cc1c2oc3c(C)ccc(C(=O)[*:1])c3nc-2c(C(=O)[*:2])c(N)c1=O; NMeV = CN[C@H](C(=O)O)C(C)C; Sar = CNCC(=O)O

What was measured:
cap-driven translation = settings: cited from earlier work
HCV polymerase = HCV polymerase (Hepatitis C virus genotype 1a, UniProt P27958); settings: read-out: dissociation constant for HCV polymerase; cited from earlier work
Chain of HCV polymerase (P27958 2421-3011): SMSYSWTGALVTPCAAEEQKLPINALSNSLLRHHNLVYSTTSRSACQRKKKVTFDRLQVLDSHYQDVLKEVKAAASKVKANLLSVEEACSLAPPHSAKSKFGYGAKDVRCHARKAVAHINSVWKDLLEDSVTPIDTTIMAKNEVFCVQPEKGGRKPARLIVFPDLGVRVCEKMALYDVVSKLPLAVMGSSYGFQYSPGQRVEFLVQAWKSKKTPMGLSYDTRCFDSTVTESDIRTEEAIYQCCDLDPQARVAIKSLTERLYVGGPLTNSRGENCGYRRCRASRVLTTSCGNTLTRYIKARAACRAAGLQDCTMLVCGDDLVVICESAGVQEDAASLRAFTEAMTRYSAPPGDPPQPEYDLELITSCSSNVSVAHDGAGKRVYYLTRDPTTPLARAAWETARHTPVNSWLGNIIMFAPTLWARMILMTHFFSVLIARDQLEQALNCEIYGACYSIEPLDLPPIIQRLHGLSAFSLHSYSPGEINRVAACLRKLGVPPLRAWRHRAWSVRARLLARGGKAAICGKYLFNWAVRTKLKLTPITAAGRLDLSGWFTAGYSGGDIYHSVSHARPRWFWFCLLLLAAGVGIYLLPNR

eIF4E wild-type = biological target: T1, eIF4E wild-type (Mus musculus, UniProt P63073); experiment: tryptophan fluorescence quenching titration of nucleoside/nucleotide binding
T1 construct: made in house
T1 sequence (P63073 whole entry): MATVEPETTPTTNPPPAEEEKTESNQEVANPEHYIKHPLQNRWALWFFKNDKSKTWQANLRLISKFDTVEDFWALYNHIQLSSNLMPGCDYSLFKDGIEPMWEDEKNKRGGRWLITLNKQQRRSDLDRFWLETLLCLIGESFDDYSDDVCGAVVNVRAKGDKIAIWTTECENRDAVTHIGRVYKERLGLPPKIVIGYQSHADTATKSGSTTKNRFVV
Protocol: For fluorescence titrations, mouse eIF4E, which differs from human eIF4E by four nonconserved amino acids, was produced as described. For NMR spectroscopy, mouse eIF4E was expressed as a fusion with the B1 domain of protein G (G4E, kind gift of Gerhard Wagner, Harvard University, Cambridge, Mass.), in BL21 (DE-3) cells by induction with 0.8 mM isopropyl-β-D-thiogalactopyranoside at 18° C. for 20 h in M9 minimal media containing 1 g/l ^15NH4Cl as the sole nitrogen source (Cambridge Isotopes). Cells were lysed at 4° C. by sonication in 0.1 M NaCl/50 mM Tris.HCl (pH 7.5/0.5 mM EDTA/0.5% (vol/vol) Nonidet P-40/10 mM 2-mercaptoethanol/1 mM PMSF. Lysates were cleared by centrifugation at 30,000×g, adsorbed onto m^7G diphosphate-conjugated agarose (Amersham Pharmacia), and extensively washed with 0.1 M NaCl/20 mM Tris.HCl (pH 7.5)/0.5 mM EDTA (Buffer A) at 4° C. Subsequently, beads were washed with 0.1 mM GTP in Buffer A, and G4E was eluted with 5 mM m^7G in Buffer A. Eluate was diluted with 20 mM Na2PO4 (pH 7.5) to reduce NaCl concentration to 50 mM, applied to Sepharose Q anion exchange column (Amersham Pharmacia), and eluted with a linear gradient of NaCl in 20 mM Na2PO4 (pH 7.5) at 4° C. Eluate was dialyzed extensively against 0.1 M NaCl/50 mM Na2PO4 (pH 6.5)/5 mM DTT at 4° C. to produce apo-G4E, as verified by using NMR spectroscopy and fluorescence titrations. Purity and identity of G4E were verified by using SDS/PAGE and electrospray ionization MS. Proteins were concentrated by using Amicon concentrators (Millipore).
Fluorescence measurements were performed by using a home-built fluorimeter, as described. All titrations were performed in 0.3 M NaCl/10 mM Na2PO4 (pH 7.5)/1 μM zinc in 0.3×0.3 cm^2 fluorescence cuvette (Hellma), by using eIF4E concentration of 2 μM. […] Corrected relative fluorescence intensities were normalized, and fluorescence quenching curves were fit to a heuristic single-site-binding expression: I/I0=Kd^n/(x^n+Kd^n) where x is ligand concentration, Kd is the apparent dissociation constant, and n is the Hill coefficient.

eIF4E:m7G binding (G4E) = biological target: T2, eIF4E:m7G binding (G4E) (UniProt P06654+P63073); experiment: m7G-Sepharose affinity chromatography competition; design: species or system mouse
T2 construct: made in house; host or cells: E. coli BL21 (DE-3); construct a gift of Gerhard Wagner
T2 sequence (P06654+P63073 fused): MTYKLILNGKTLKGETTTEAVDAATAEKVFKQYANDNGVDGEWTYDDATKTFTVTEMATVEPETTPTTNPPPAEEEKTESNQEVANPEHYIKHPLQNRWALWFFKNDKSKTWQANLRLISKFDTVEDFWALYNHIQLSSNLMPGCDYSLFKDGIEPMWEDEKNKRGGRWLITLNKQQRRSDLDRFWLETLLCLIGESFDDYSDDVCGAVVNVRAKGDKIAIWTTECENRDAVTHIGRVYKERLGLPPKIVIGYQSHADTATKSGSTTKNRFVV
Protocol: FIG. 9. […] Washed beads (three times with 75 bed volumes) were incubated with 50 uM of compounds as indicated for 30 min at room temperature. Beads were washed (three times with 75 bed volumes) to remove dissociated eIF4E, and eIF4E remaining bound to beads was resolved using SDS-PAGE, and visualized using Western blotting and chemiluminescence. […] Washed beads (five times with 50 bed volumes of LCB buffer) were incubated with 5 bed volumes of 50 uM of compounds as indicated for 20 min at 4° C. Then 20 uL of the supernatant containing dissociated eIF4E was transferred to a new tube, cleared of trace beads containing bound eIF4E, and resolved using SDS-PAGE, and visualized using Western blotting and chemiluminescence.
m^7G-Sepharose beads (Amersham Pharmacia, 20-μl slurry) were bound with 1.5 ml of 2 μM G4E, purified as described above, in 0.3 M NaCl/0.1 M sodium phosphate (pH 7.5)/10 μM protease-free BSA (USB)/0.1% Nonidet P-40 (Buffer B) for 30 min at room temperature. […] Upon washing released G4E three times with Buffer B, G4E remaining bound to m^7G-Sepharose was boiled in Laemmli buffer (10% glycerol/2% SDS/100 mM DTT/80 mM Tris.HCl/0.06% bromophenol blue, pH 6.8), subjected to SDS/PAGE, and visualized by using Western blotting, as described below.

4E-SE mRNA export = experiment: export of LacZ-4E-SE mRNA (c/n ratio, real time PCR) in eIF4E overexpressing U2OS cells; assay type: cell-based, human; settings: for export of 4E-SE containing / cyclin D1 mRNA under inhibition of RNA or protein synthesis: actinomycin D 10 μg/ml, cycloheximide 100 μg/ml, 1 hour
Protocol: eIF4E and PML stably transfected NIH3T3 and U937 cells were as described (Topisirovic et al., 2002; Topisirovic et al., 2003a). U937 cells were used to analyze endogenous Pim1, which is not expressed in NIH3T3 cells. LacZ/LacZ-4E-SE with or without 2Flag-eIF4E as well as TetON LacZ system were stably transfected in U2OS cells. For NXF1 depletion, U2OS cells were transfected with Lipofectamine 2000 and 10 nM siRNA duplex HSC.RNAI.N006362.1.3 (IDT) according to the manufacturer's instruction. Cells were analyzed 72 h after transfection. Actinomycin D, cycloheximide and leptomycin B were all cell culture grade (Sigma).
Immunopurification was as previously published (Culjkovic et al., 2005). Real Time PCR analyses were performed using Sybr Green PCR Master mix (ABI) in Mx3000P™ thermal cycler (Stratagene), and data analyzed with MxPro software (Stratagene). All conditions were described previously (Culjkovic et al., 2005). All calculations were done using the relative standard curve method described in Applied Biosystems User Bulletin #2.
Fractionation and RNA isolation were as described (Lai and Borden, 2000; Topisirovic et al., 2002). Probes for U6 and tRNAlys for Northern blot analysis were previously described (Topisirovic et al., 2002).

[1] = biological target: T3, nuclear eIF4E-cyclin D1 mRNA association (Homo sapiens, UniProt P06730); experiment: eIF4E immunoprecipitation from nuclear lysates with cap analogue competition, RT-PCR; assay type: biochemical; settings: 50 uM analogue
T3 construct: endogenous in cells; host or cells: HEK293T cells, nuclear lysate
T3 sequence (P06730 2-217 limits assumed): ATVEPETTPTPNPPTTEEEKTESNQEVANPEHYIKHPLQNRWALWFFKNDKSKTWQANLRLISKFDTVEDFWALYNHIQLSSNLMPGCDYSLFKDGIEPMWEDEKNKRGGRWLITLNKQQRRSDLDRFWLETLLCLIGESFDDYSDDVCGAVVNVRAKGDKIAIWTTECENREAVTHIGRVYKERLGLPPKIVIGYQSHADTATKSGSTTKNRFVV

[2] = biological target: cap-binding complex (CBC) (Homo sapiens, UniProt P52298); settings: cited from earlier work
Chain of cap-binding complex (CBC) (P52298 whole entry): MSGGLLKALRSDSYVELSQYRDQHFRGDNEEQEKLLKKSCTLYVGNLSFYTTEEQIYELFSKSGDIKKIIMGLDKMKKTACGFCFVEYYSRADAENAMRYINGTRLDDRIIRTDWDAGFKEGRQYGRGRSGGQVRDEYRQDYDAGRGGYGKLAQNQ
Chain of cap-binding complex (CBC) (Q09161 whole entry partner): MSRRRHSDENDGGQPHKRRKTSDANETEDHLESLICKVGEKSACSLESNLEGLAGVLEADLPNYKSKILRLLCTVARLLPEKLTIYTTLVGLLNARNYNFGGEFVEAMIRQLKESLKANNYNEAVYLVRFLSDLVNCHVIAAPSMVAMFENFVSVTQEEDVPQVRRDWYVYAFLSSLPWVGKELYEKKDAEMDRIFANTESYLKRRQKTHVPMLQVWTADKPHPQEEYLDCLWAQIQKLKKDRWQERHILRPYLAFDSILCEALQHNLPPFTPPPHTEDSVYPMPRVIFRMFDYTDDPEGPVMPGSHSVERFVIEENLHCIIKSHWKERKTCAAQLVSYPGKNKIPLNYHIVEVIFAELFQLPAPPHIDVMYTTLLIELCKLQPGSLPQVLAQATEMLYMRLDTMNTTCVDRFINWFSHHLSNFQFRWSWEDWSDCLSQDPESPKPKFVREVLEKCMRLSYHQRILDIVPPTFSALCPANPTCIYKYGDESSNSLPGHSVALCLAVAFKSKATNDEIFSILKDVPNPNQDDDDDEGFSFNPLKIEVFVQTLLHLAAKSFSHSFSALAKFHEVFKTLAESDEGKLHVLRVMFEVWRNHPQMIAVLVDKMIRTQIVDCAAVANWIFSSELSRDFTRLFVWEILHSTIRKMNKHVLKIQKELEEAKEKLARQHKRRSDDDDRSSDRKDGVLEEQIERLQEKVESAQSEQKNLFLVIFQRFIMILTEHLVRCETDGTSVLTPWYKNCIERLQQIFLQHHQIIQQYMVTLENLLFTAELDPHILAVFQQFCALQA

eIF4E = eIF4E (Homo sapiens, UniProt P06730); settings: cited from earlier work
Chain of eIF4E (P06730 whole entry, species assumed): as the sequence (P63073 whole entry) above, with T12P, P16T, A17T, D174E counted along it

Compound: NC(=O)c1ncn(C2OC(COP(=O)(O)OP(=O)(O)OP(=O)(O)OCC3OC(n4cnc5c(=O)[nH]c(N)nc54)C(O)C3O)C(O)C2O)n1 (centres unmarked) [RpppG]
inhibition of cap-driven translation (cap-driven translation; Westman et al. 2005): does not

Compound: Cn1c[n+]([C@@H]2O[C@H](COP(=O)(O)OP(=O)([O-])O)[C@@H](O)[C@H]2O)c2nc(N)[nH]c(=O)c21 [m7GDP]
reduction of cap-driven firefly luciferase activity (cap-driven translation; 1 mM, Yan et al. 2005): fourfold

Compound: NC(=O)c1ncn([C@@H]2O[C@H](CO[P@@](=O)(O)O[P@](=O)(O)OP(=O)(O)O)[C@@H](O)[C@H]2O)n1 [RTP, Ribavirin-5′ triphosphate]
Kd (HCV polymerase): 580000 nM
Kd (eIF4E wild-type; fluorescence spectroscopy, wild-type eIF4E, read-out: apparent dissociation constant (Kd) for eIF4E): 130 nM and ~100 nM
competition with m7G binding, protocol of Yan et al. (eIF4E:m7G binding (G4E); 0.1 M KCl, 10 mM HEPES-KOH pH 8.0, presumed 4 C): apparent failure of RTP to compete
competition with eIF4E:m7G binding (eIF4E:m7G binding (G4E); 0.3 M NaCl, 0.1 M sodium phosphate pH 7.5, room temperature, micromolar concentrations): compete with the binding of eIF4E:m7G
IC50 (eIF4E:m7G binding (G4E); Western blot of eIF4E remaining bound, read-out: concentration giving 50% reduction of eIF4E binding to m7G-Sepharose): ~1000 nM
Ki (eIF4E:m7G binding (G4E); read-out: apparent inhibition constant (Ki) of eIF4E:m7G binding): ~300 nM

Compound: NC(=O)c1cn([C@@H]2O[C@H](CO)[C@@H](O)[C@H]2O)nn1 [Rib4C, 1-β-D-ribofuranosyl-1,2,3-triazole-4-carboxamide]
binding to eIF4E (eIF4E wild-type; in vitro): failed to bind eIF4E

Compound: CCC(=C/[C@H](C)C/C=C/C(C)=C/[C@@H](C)C(=O)[C@@H](C)[C@H](O)[C@@H](C)C/C(C)=C/C(=O)O)/C=C/[C@@H]1OC(=O)C=C[C@@H]1C [LMB]
export of LacZ-4E-SE mRNA (4E-SE mRNA export; 10 ng/ml for 4 h): sensitive to LMB; also recorded: suppressed export

association of cyclin D1 mRNA with nuclear eIF4E [1]: does not disrupt
Compound: Nc1nc2c(ncn2[C@@H]2O[C@H](COP(=O)(O)OP(=O)(O)OP(=O)(O)OC[C@H]3O[C@@H](n4cnc5c(=O)[nH]c(N)nc54)[C@H](O)[C@@H]3O)[C@@H](O)[C@H]2O)c(=O)[nH]1 [GpppG]

association of cyclin D1 mRNA with nuclear eIF4E [1]: successfully disrupts
Compound: Cn1c[n+]([C@@H]2O[C@H](COP(=O)(O)OP(=O)([O-])OP(=O)(O)OC[C@H]3O[C@@H](n4cnc5c(=O)[nH]c(N)nc54)[C@H](O)[C@@H]3O)[C@@H](O)[C@H]2O)c2nc(N)[nH]c(=O)c21 [m7GpppG]
analog concentration inhibiting cap-driven translation (cap-driven translation; Westman et al. 2005): ca. 0.1 mM
Kd [2]: ~10 nM

Compound: Nc1nc2c(ncn2[C@@H]2O[C@H](CO)[C@@H](O)[C@H]2O)c(=O)[nH]1 [guanosine]
binding to eIF4E relative to m7G cap, fold weaker (eIF4E): > 5000 fold

Compound: Cc1c2oc3c(C)ccc(C(=O)N[C@@H]4C(=O)N[C@H](C(C)C)C(=O)N5CCC[C@H]5C(=O)N(C)CC(=O)N(C)[C@@H](C(C)C)C(=O)O[C@@H]4C)c3nc-2c(C(=O)N[C@@H]2C(=O)N[C@H](C(C)C)C(=O)N3CCC[C@H]3C(=O)N(C)CC(=O)N(C)[C@@H](C(C)C)C(=O)O[C@@H]2C)c(N)c1=O [actinomycin D] (I: T[dV]P[Sar][NMeV] / II: T[dV]P[Sar][NMeV]; ester I:1-I:C, II:1-II:C; linker I:N-II:N via Actinocin(9to1))
export of 4E-SE containing / cyclin D1 mRNA under inhibition of RNA or protein synthesis (4E-SE mRNA export): did not affect export

Compound: C[C@@H]1C[C@@H]([C@H](O)CC2CC(=O)NC(=O)C2)C(=O)[C@@H](C)C1 [cycloheximide]
export of 4E-SE containing / cyclin D1 mRNA under inhibition of RNA or protein synthesis (4E-SE mRNA export): not modulated
